# Test results taken from paper PMC6645542 (PLoS ONE, 2019).
# pIC50: −log10 of the molar value.
# Experiments:
# [1] = target: Thioredoxin glutathione reductase from T. crassiceps (TcTGR) (Taenia crassiceps, UniProt A0ABR4QG96); assay: GSSG-reductase activity of TGR (NADPH oxidation at 340 nm); format: biochemical; conditions: for inhibition at 200 µM: 200 μM of the compound, 3 min incubation (Fig 1a), read-out: maximal inhibition of GSSG reductase activity of TcTGR; for Recovered activity (%): B: TGR incubated with COP for 5 min, then thiol 50 μM added, control = 100%; for pIC50: curcumin degradation products, 3 min incubation in TE buffer, 100 μM NADPH, 67 μM GSSG, read-out: IC50, inhibition of GSSG reductase activity of TcTGR
# Procedure: TGR activity was monitored spectrophotometrically by following the decrease in absorbance at 340 nm (ɛ = 6.22 mM^-1cm^-1) due to its NADPH-dependent ability to reduce GSSG [35, 36]. To determine the inhibitory ability of either curcuminoids, curcumin degradation products or curcumin oxidation products we used the following protocols: a) Curcuminoids. An enzyme aliquot (30 μL) was incubated in the presence of 1 μM NADPH; then, a 1.5 μL aliquot of the above mixture was added to 50 μM of the corresponding curcuminoid solution in TE buffer. At different incubation times, a small aliquot containing both NADPH and GSSG was added to start the reaction in a total volume of 600 μL. The enzyme activity of a reaction mixture prepared in the absence of any curcuminoid was taken as 100% relative activity b) Curcumin degradation products (CDP). The enzyme was treated as above and 1.5 μL aliquot of the mixture was added to the corresponding CDP solution at a selected concentration followed by a 2 min incubation period. Then, both NADPH and GSSG were added to start the reaction. The enzyme activity of a reaction mixture prepared in the absence of any CDP was taken as 100% relative activity. c) Curcumin oxidation products (COP). Curcumin final concentration 50 μM was incubated 15 min in TE buffer. Then, both TGR and the substrates NADPH and GSSG were added to start the reaction. Final concentrations of enzyme, NADPH and GSSG were 13 nM, 100 μM and 70 μM respectively. A unit of enzyme activity is defined as the amount of protein needed to oxidize one μmol NADPH per minute at 25°C.
# [2] = Spectrophotometrical analysis of stability (absorbance at 426 nm / absorption spectrum); format: physicochemical
# Procedure: Raúl Enriquez (Instituto de Química, UNAM, México). Curcumin 5 mM was dissolved in DMSO and stored at room temperature. […] The protein concentration of the purified enzyme was determined spectrophotometrically by reading the absorbance at 460 nm (ɛ = 11.3 mM^-1cm^-1) due to its FAD content. The absorption spectrum of curcuminoids (curcumin, DMC and BDMC) and the different curcumin degradation products (CDP) FM, V, VA, F-Ad, 4VG, and FA were recorded in a UV/Vis Beckman DU 730 Spectrophotometer. […] The detection of the curcumin oxidation products (COP) was performed by following the changes in the absorption spectrum immediately after a 100-fold dilution of the curcumin stock solution in TE buffer.
# [3] = design: method as in PMID 25806475; conditions: cited from earlier work
structure (smiles),measurement,setting,value
"O=C(/C=C/c1ccc(O)cc1)CC(=O)/C=C/c1ccc(O)cc1 [BDMC, bis-demethoxycurcumin]",inhibition of the enzyme activity,"[1]; 50 μM, diluted 30 min in TE buffer before enzyme, 30 min incubation with TGR (Fig 3)",no inhibition was observed
same,inhibition at 200 µM,[1],100%
"O[C@@H](CS)[C@@H](O)CS (racemic) [DTT, 1,4-Dithio-DL-threitol, reference compound]",Recovered activity (%),[1],20.3 ± 1.1%
COc1cc(/C=C/C(=O)O)ccc1O [ferulic acid],pIC50,[1],3.33
"N[C@@H](CCC(=O)N[C@@H](CS)C(=O)NCC(=O)O)C(=O)O [GSH, reduced glutathione, reference compound]",Recovered activity (%),[1],14.7 ± 1.0%
COc1cc(/C=C/C=O)ccc1O [ferulic aldehyde],pIC50,[1],3.74
"COc1cc(/C=C/C(=O)CC(=O)/C=C/c2ccc(O)c(OC)c2)ccc1O [curcumin, (1E, 6E)-1,7-bis (4-hydroxy-3-methoxyphenyl)-1,6-heptadiene-3,5-dione]",dilution time at which the maximal inhibitory ability was reached,[1]; 50 μM diluted in TE buffer in the absence of NADPH (Fig 4a),15 min
same,inhibition of the enzyme activity,[1]; 50 μM diluted in TE buffer in the presence of 100 μM NADPH (Fig 4b),no inhibition
same,remaining activity at 50 µM,"[1]; 50 μM diluted in TE buffer without NADPH, after 4 h incubation (Fig 4a grey line), read-out: activity relative to control",80%
same,GSSG reductase activity,"[1]; 50 μM, diluted 30 min in TE buffer before enzyme, 1 min incubation with the enzyme (Fig 3a)",no GSSG reductase activity was detected
same,inhibition at 200 µM,[1],10%
same,drop in the absorbance at 426 nm,"[2]; 50 μM in TE buffer pH 7.8, 30 min incubation, in the absence of NADPH",82%
same,diminution in the absorbance at 426 nm,"[2]; 50 μM in TE buffer pH 7.8, 30 min incubation, in the presence of 100 μM NADPH",25%
"COc1cc(/C=C/C(O)=C/C(=O)/C=C/c2ccc(O)cc2)ccc1O [DMC, demethoxycurcumin]",inhibition at 200 µM,[1],65%
same,time after dilution at which the final product of oxidative transformation was achieved,[3],48 h
same,effect of NADPH on the stability,"[2]; 50 μM in TE buffer, 100 μM NADPH, absorbance at 426 nm",no effect
